Results: EP4219453A1 (Sichuan Kelun-Biotech Biopharmaceutical Co., Ltd., priority 2020, dated 2022)

Experiments:
CYP2D6 = target: T1, CYP2D6 (Homo sapiens, UniProt P10635); test: CYP enzyme inhibition test, P450-Glo CYP2D6 Screening System; type: in vitro ADME; details: Luciferin-ME EGE 3 µM
T1 construct: purchased Promega
Method: Test Example 5: CYP enzyme (Cytocrome P450) inhibition test
• 1. Test system: • P450-Glo™ CYP1A2 Screening System (Promega); • P450-Glo™ CYP2D6 Screening System (Promega); • P450-Glo™ CYP3A4 Screening System (Promega). • 2. Test instrument: BMG PHERAstar FS Luminescent. • 3. Test method: The test was carried out according to the kit instructions, and the steps were as follows: 3.1. Inhibition of CYP1A2:
Test group: The test compound of different concentration was added to the microplate, and Luciferin-ME EGE (3 µM), K3PO4 (100 mM) and CYP2D6 (5 nM) were added to each well, and pre-incubated at room temperature for 10 min, followed by an addition of the NADPH regeneration system, and reacted at 37°C for 30 min, an equal volume of detection buffer was added at last, and incubated at room temperature for 20 min, and then chemiluminescence detection was performed.
Negative control group: The experimental method was the same as that of the test group, but the test compound was not added.
Blank control group: The experimental method was the same as that of the test group, but the test compound was not added, and CYP2D6 Membrance (5 nM) was used instead of CYP2D6.
The median inhibitory concentration (IC50) or range of the compound was estimated according to the inhibition rate of CYP enzymes at different concentrations: IC50 = X × (1 - percent inhibition rate (%)) / percent inhibition rate (%), wherein X is the test concentration of the compound.

TGFβR1 = target: T2, TGFβR1 (Homo sapiens, UniProt P36897); test: In vitro enzymatic activity inhibition test (TGFβR1), ADP-Glo Kinase Detection Kit; type: biochemical; details: calculated from percent inhibition at 1000 nM, 100 nM, 10 nM
T2 sequence (P36897 34-503): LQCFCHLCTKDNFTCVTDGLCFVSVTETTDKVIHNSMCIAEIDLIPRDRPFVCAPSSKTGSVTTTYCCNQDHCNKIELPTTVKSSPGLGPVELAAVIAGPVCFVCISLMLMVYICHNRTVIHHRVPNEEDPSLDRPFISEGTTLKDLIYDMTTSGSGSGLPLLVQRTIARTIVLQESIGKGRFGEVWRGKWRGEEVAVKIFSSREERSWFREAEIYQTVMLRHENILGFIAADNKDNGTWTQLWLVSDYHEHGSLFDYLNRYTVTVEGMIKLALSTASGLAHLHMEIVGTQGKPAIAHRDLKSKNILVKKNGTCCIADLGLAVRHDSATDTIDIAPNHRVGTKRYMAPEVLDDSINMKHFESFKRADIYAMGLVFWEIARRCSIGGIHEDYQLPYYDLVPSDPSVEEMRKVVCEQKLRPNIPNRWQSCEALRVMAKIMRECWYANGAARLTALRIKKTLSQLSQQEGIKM
Method: Test Example 1: In vitro enzymatic activity inhibition test (TGFβR1).
Experimental method: According to the instructions of ADP-Glo™ Kinase Detection Kit (Promega), the inhibitory effect of the compounds of the present invention on the enzymatic activity of TGFβR1 was determined, and the steps were as follows: TGFβR1 enzyme were pre-incubated with different concentrations of test compounds (1000 nM, 100 nM, 10 nM) at 30°C for 30 min, TGFβR1 peptide and adenosine triphosphate (ATP) were added to initiate the reaction. The incubation was performed at 30°C for 3 h, followed by an addition of ADP-Glo™ reagent and incubated at room temperature for 90 min, kinase detection reagent was then added. Chemiluminescence signal values were detected after incubation at room temperature for another 30 min.
When the percent inhibition rate was between 30% and 80%, the median inhibitory concentration (IC50) or range of the compound was calculated according to the following formula: IC50 = X × (1 - percent inhibition rate (%)) / percent inhibition rate (%), wherein X is the concentration of the compound at which the inhibition rate is between 30% and 80%.

[1] = system: TGFβ/Smads signaling pathway in HEK293-SBE cells; test: In vitro cell activity inhibition test, Bright-Glo luciferase reporter in HEK293-SBE cells; type: cell-based; details: TGFβ 0.5 ng/ml, luciferase reporter gene method
Method: Test Example 3: In vitro cell activity inhibition test
Experimental method: According to the instructions of Bright-Glo™ luciferase detection kit (Promega), the inhibitory effect of the compounds of the present invention on TGFβ/Smads signaling pathway in HEK293-SBE cells was determined. The steps were as follows: HEK293-SBE cells (Bps bioscience) were added to a 96-well plate (10% FBS medium), 30,000/well, and cultured overnight at 37°C and 5% CO2. The medium was changed to 0.5% FBS medium, and the test compound diluted in 0.5% FBS medium was added. The highest final concentration of the test compound was 10 µM with 4-fold dilution, and a total of 8 concentration gradients. After 4-5 hours of incubation, 10 µl of TGFβ was added. The final concentration of TGFβ was 0.5 ng/ml. 10 µl of medium added in replace of TGFβ was the negative control. In the blank control, no test compound was added, and TGFβ was added. Bright Glo reagent was added to each well, and the chemiluminescence signal value was read on a microplate reader.
The percent inhibition rates of the test compound at different concentrations were plotted against the compound concentrations, the curve was fitted according to the four-parameter model, and the IC50 value was calculated by the following formula: y = Min + (Max - Min) / (1 + (x / IC50) ^ (-Hillslope)), wherein: y is percentage inhibition rate; Max and Min are the maximum and minimum values of the fitted curve, respectively; x is the logarithmic concentration of compound; and Hillslope is the slope of the curve.

T1 sequence (P10635 whole entry): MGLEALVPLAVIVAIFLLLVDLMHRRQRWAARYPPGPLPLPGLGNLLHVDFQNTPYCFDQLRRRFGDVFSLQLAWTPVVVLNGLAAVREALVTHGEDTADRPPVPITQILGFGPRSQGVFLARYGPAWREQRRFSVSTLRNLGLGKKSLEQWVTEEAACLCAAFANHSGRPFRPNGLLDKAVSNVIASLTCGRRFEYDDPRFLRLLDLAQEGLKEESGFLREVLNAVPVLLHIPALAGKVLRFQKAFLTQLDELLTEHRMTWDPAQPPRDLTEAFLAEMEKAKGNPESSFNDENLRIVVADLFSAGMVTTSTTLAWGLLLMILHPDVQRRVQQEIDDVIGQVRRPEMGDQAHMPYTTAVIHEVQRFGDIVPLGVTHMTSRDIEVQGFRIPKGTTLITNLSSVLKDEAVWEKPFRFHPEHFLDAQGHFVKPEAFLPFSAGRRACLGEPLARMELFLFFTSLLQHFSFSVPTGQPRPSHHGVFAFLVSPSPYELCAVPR

SMILES: Cc1cccc(-n2nc3c(c2-c2ccn4nccc4c2)CCC3)n1 [Example 4, 5-[2-(6-methylpyridin-2-yl)-2,4,5,6-tetrahydrocyclopenteno [c]pyrazol-3-yl]pyrazolo[1,5-a]pyridine]
- IC50 (CYP2D6): > 10 µM
- IC50 (TGFβR1): 12 ± 5.4 nM
- IC50 [1]: 0.035 ± 0.00269 µM

SMILES: Cc1cccc(-n2nc3c(c2-c2ccn4ncc(C(N)=O)c4c2)CCC3)n1 [Example 6, 5-[2-(6-methylpyridin-2-yl)-2,4,5,6-tetrahydrocyclopenteno[c]pyrazol-3-yl]pyrazolo[1,5-a]pyridine-3-carboxamide]
- IC50 (CYP2D6; 30 min): > 10 µM
- IC50 (TGFβR1): 2.36 ± 0.68 nM
- IC50 [1]: 0.0201 ± 0.001 µM

SMILES: CNc1cc(-c2ccn3ncc(C(N)=O)c3c2)n(-c2cccc(C)n2)n1 [Example 8, 5-(3-(methylamino)-1-(6-methylpyridin-2-yl)-1H-pyrazol-5-yl)pyrazolo[1,5-a]pyridine-3-carboxamide]
- IC50 (CYP2D6): > 10 µM
- IC50 (TGFβR1): 8.27 ± 0.11 nM
- IC50 [1]: 0.0299 ± 0.00127 µM

SMILES: Cc1cccc(-n2nc(NC(C)c3ccc(F)cc3)cc2-c2ccn3ncc(C(N)=O)c3c2)n1 (stereo not drawn) [Example 10, 5-(3-(1-(4-fluorophenyl)ethylamino)-1-(6-methylpyridin-2-yl)-1H-pyrazol-5-yl)pyridino[1,5-a]pyridine-3-carboxamide]
- IC50 (CYP2D6): > 10 µM
- IC50 (TGFβR1): 4.82 ± 0.51 nM
- IC50 [1]: 0.0431 ± 0.00419 µM

SMILES: Cc1cccc(-n2nc(NCc3ccc(F)cc3)cc2-c2ccn3ncc(C(N)=O)c3c2)n1 [Example 11, 5-(3-(4-fluorobenzylamino)-1-(6-methylpyridin-2-yl)-1H-pyrazol-5-yl)pyrazolo[1,5-a]pyridine-3-carboxamide]
- IC50 (CYP2D6): > 10 µM
- IC50 (TGFβR1): 0.5 ± 0.21 nM
- IC50 [1]: 0.0194 ± 0.00152 µM

SMILES: Cc1cccc(-n2nccc2-c2ccn3ncc(C(N)=O)c3c2)n1 [Example 12, 5-(1-(6-methylpyridin-2-yl)-1H-pyrazol-5-yl)pyrazolo[1,5-a]pyridine-3-carboxamide]
- IC50 (CYP2D6): > 10 µM
- IC50 (TGFβR1): 9.39 ± 2.15 nM
- IC50 [1]: 0.0266 ± 0.00543 µM
